Results from US8754047B2, “Peptide compositions and methods of use” (The Research Foundation for the State University of New York, priority 2008, dated 2014).
Entries after “also recorded” stand apart in the source; their conditions may differ. Positions of bridges follow the written chain, without caps; N, C: chain ends. Residues, ends and D or L forms follow the SMILES beside them.

Experiments:
peroxiredoxin 1 = experiment: Oxidized peroxiredoxin 1 (Prx-O3) immunoblot in SW480 cells; format: cell-based, human; conditions: 1 h, YJB01 20 μM and 100 μM, YJB05 100 μM
Description: (§1) The oxidized peroxiredoxin 1 (sulphonic-peroxiredoxin, Prx-O3) was detected by using the specific anti-Prx-O3 antibody. Briefly, after SW480 cells were treated with either no peptide, with YBJ01 (at 20 μM and 100 μM), or with YJB05 (at 100 μM) for 1 h, total cell lysates were collected and separated on the SDS-PAGE gel. The gel was electroblotted onto a nitrocellulose membrane and probed with anti-Prx-O3, followed by HRP-conjugated secondary antibody. Bands corresponding to sulphonic-peroxiredoxin were visualized by ECL
as §1, with “anti-Prx-O3 antibody” for “anti-Prx-O3 antibody.”, “with YBJ05” for “with YJB05”

[1] = test system: MCF-7 human breast cancer cells; experiment: Flow cytometry forward/side scatter, proportion of dead cells, MCF7; format: cell-based; conditions: 200 μM, 24 hr
Description: SW480 human colon cancer cells and MCF7 breast cancer cells were grown following the instructions of American Type Culture Collection (ATCC, Monassas, Va.). The cells were treated with the test peptides (YJB01, YJB05, or YJB06) for 24 hrs at concentrations ranging from 0 μM, to 200 μM and subjected to flow cytometric analysis following standard protocols.
SW480 human colon cancer cells and MCF7 breast cancer cells were grown following the instructions of American Type Culture Collection (ATCC, Monassas, Va.). The cells were treated with the test peptides for 24 hrs at concentrations ranging from 0 μM, to 200 μM and subjected to flow cytometry analysis following standard protocols. […] The circumscribed (gated, outlined) areas in the figure indicate dead cells; dead cells generally have higher density (side scatter) and smaller size (forward scatter) than living cells.

thioredoxin 1 = biological target: T1, thioredoxin 1 (Homo sapiens, UniProt P10599); experiment: Thioredoxin 1 redox state, native PAGE immunoblot in SW480 cells; format: cell-based; conditions: YJB01 20 μM and 100 μM, YJB05 100 μM
T1 construct: endogenous in cells; host or cells: SW480 human colon cancer cells
T1 sequence (P10599 1-105): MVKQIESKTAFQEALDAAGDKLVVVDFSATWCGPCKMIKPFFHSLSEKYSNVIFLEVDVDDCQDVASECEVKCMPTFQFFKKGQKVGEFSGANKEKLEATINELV
Description: (§2) SW480 human colon cancer cells were grown following the instructions of American Type Culture Collection (ATCC, Monassas, Va.). Cells were treated with either no peptide, with YBJ01 (at 20 μM and 100 μM), or with YBJ05 (at 100 μM). 10^6 cells were lysed in 6 mol/L guanidinium chloride, 50 mmol/L Tris/HCL (pH 8.3), 3 mmol/L EDTA, and 0.5% Triton-X-100 containing 50 mmol/L iodoacetic acid. After 30 min at 37° C., the excess idoacetic acid was removed using Microspin G-25 columns (GE Healthcare Life Sciences). Oxidized and reduced thioredxoin was separated by native PAGE. The gel was electroblotted onto a nitrocellulose membrane and probed with thioredoxin antibodies, followed by HRP-conjugated secondary antibody. Bands corresponding to thioredoxin were visualized by ECL.
as §2, with “10^6 cells from each sample were lysed” for “10^6 cells were lysed”, “native PAGE. […]” for “native PAGE. The gel was electroblotted onto a nitrocellulose membrane and probed with thioredoxin antibodies, followed by HRP-conjugated secondary antibody. Bands corresponding to thioredoxin were visualized by ECL.”

[2] = test system: HT29 human colon cancer cells; format: cell-based; conditions: inhibits cell growth by 50% at 24 hours of exposure; MTT or cell Titer-Glo; read-out: IC50s, HT29
Excerpt: (FIG. 2A1-8, and FIG. 2B1-6).

[3] = test system: SW480 human colon cancer cells; experiment: RONS levels by DCFDA probe, flow cytometry; format: cell-based; conditions: 1 hr, control 14.69
Description: (§3) SW480 human colon cancer cells were grown following the instructions of American Type Culture Collection (ATCC, Monassas, Va.). The cells were treated with the test peptide YJB01 for 1 hr at either 20 μM or 100 μM. After treatment, cells were trypsinized and stained with DCFDA (10 μmol/L) for 30 minutes at 37° C. DCFDA fluorescence intensity was analyzed by FACSCaliber (BD Bioscience) following standard protocols. […] Thus, FIG. 6A indicates YJB01 induces RONS production in a concentration dependent manner.
The levels of RONS in SW480 and MCF-7 cells were evaluated using the methodology described in Rigas, B., and Y. Sun. (2008), using the general RONS probe, dichlorodihydrofluorescein diacetate (DCFDA). (Rigas, B., and Sun., Y., (2008), Br J Cancer 98:1157-1160).
as §3, with “37°.” for “37° C.”

CC[C@H](C)[C@H](NC(=O)[C@H](CCCCN)NC(=O)[C@@H](NC(=O)[C@H](CCC(N)=O)NC(=O)[C@H](CCCNC(=N)N)NC(=O)[C@@H]1CCCN1C(=O)[C@H](CCCCN)NC(=O)[C@@H]1CSSC[C@H](NC(=O)[C@H](Cc2c[nH]c3ccccc23)NC(=O)[C@@H](NC(=O)[C@H](C)N)[C@@H](C)O)C(=O)NCC(=O)N2CCC[C@H]2C(=O)N1)[C@@H](C)CC)C(=O)N[C@@H](Cc1c[nH]c2ccccc12)C(=O)N[C@@H](Cc1ccccc1)C(=O)N[C@@H](CCC(N)=O)C(=O)N[C@@H](CC(N)=O)C(=O)N[C@@H](CCCNC(=N)N)C(=O)N[C@@H](CCCNC(=N)N)C(=O)N[C@@H](CCSC)C(=O)N[C@@H](CCCCN)C(=O)N[C@@H](Cc1c[nH]c2ccccc12)C(=O)N[C@@H](CCCCN)C(=O)N[C@@H](CCCCN)C(=O)O [YJB01] (H-ATWCGPCKPRQIKIWFQNRRMKWKK-OH; disulfide 4-7; N-terminus and C-terminus assumed)
induction of the oxidized form of peroxiredoxin 1 (peroxiredoxin 1): induced the oxidized form of peroxiredoxin; also recorded: capable of inducing oxidation
dead cells, MCF7 [1]: 72.12%
induction of the oxidized form of thioredoxin 1 (thioredoxin 1): induces the oxidized form of thioredoxin 1; also recorded: capable of inducing oxidation
IC50 [2]: 89 µM
Geometric Mean of the fluorescence intensity of DCFDA ([3]; 20 μM): 19.05
Geometric Mean of the fluorescence intensity of DCFDA ([3]; 100 μM): 29.6
